Measurements published in patent publication US20190209548A1, “LINKED DIARYL COMPOUNDS WITH ANTICANCER PROPERTIES AND METHODS OF USING THE SAME” (University of Maryland, College Park, priority 2014, published 2019).

Key:
[1] = test system: 24mer c-myc; assay: ITC titration with c-myc G-quadruplex; type: binding
Method: (§1) Isothermal titration calorimetry. ITC experiments were performed using a VP-ITC calorimeter (GE-Healthcare). A typical ITC experiment involved as many as addition of 28 (10 μL) injections of as high as 1 mM ligand solutions into ˜1.5 mL of a dilute DNA solution (10 μM). Corrected titration curves were achieved by subtracting the blank titration data from the ITC-data for the ligand-DNA titrations. Corrected ITC titrations were fit with a nonlinear regression algorithm again using the CHASM ITC data analysis program developed in our laboratory.
(§2) DNA stock solutions were prepared by reconstituting the lyophilized oligonucleotide into 20 mM Tris buffer with a salt concentration of 100 mM KCl and a pH of 7.2. Approximately 2 mL of the oligonucleotide was dialyzed (1000 Mw cutoff membrane) against three changes of buffer solution (1 L, 24 h each) at 4° C. The concentrations of stock DNA solutions were verified using UV-Vis. G-Quadruplex DNAs were annealed by quickly heating to sample to 100° C., holding at 100° C. for ten minutes then slowly cooling to 5° C. over three hours period. Molar extinction coefficient of the DNAs were determined using a nearest-neighbor method for single stranded DNA. The extinction coefficients at 260 nm for the WT 27-mer bcl-2, WT 24-mer c-myc, WT 22-mer human telomere hTel sequences are 267,200 M^−1cm^−1, 248,100 M^−1cm^−1, and 228,500 M^−1cm^−1 respectively. The extinction coefficient at 260 nm for the 7 base pair hairpin with A2T2 (7 bp HP⋅AT) and the 7 base pair hairpin without A2T2 (7 bp HP) are 165,200 M^−1cm^−1 and 159,200 M^−1cm^−1 respectively. Cell culture grade water purchased from Corning was used for all experiments.

[2] = test system: 7bp HP•AT; assay: ITC titration with 7 bp hairpin containing A2T2; type: binding
Method: as §1, §2

[3] = test system: 27mer bcl-2; assay: ITC titration with bcl-2 G-quadruplex; type: binding
Method: as §1, §2

[4] = test system: 22mer hTel K^+; assay: ITC titration with hTel G-quadruplex, K+ form; type: binding, human
Method: as §1
as §2, with “The extinction coefficient at 260 nm for the 7 base pair hairpin with A2T2 (7 bp HP⋅AT) and the 7 base pair hairpin without A2T2 (7 bp HP) are 165,200 M^−1cm^−1 and 159,200 M^−1cm^−1 respectively. Cell culture grade water purchased from Corning was used for all experiments.” left out

[5] = test system: G-quadruplex DNAs (c-kit1, VEGF, bcl-2 2345 and TBA); assay: UV-visible titration with G-quadruplex DNA; type: binding; conditions: ligand 10 μM, DNA 0-150 μM, 250 mM KCl, Tris-HCl pH 7.5
Method: UV titration studies of DNA with the triazene ligands, DMZ and Triazene-1. The molar extinction coefficients at 260 nm for 22-mer c-kit1, 18-mer VEGF, 23-mer bcl-2 2345, 15-mer TBA and 20-mer 8 bp AT are as follows 226,700 M^−1 cm^−1, 169,800 M^−1 cm^−1, 227,300 M^−1 cm^−1, 143,300 M^−1 cm^1 and 205,500 M^−1 cm^−1, respectively. The concentration of ligands used in this study was 10 μM and the DNA concentrations were 0, 0.25, 1.5, 3, 5, 6, 7, 8, 9, 10, 20, 30, 40, 50, 100, and 15 μM. The buffer contained 250 mM KCl, 50 mM Tris-HCl (at pH 7.5). The following quadruplex DNA were tested: c-kit1, VEGF, bcl-2 2345, and TBA. Duplex DNA (8 bp AT) was also tested. The sample was first heated up to 95° C. for 5 min without the ligand and then cooled down to room temperature in 15 min. The ligand was then added and the mixture was incubated at 4° C. for ˜12 h before recording the data. In case of Triazene-1 and Triazene-2, the sample mixture contained 1% DMSO.

[6] = test system: 8 bp AT; assay: CD titration with AT-rich duplex DNA; type: binding; conditions: ligand 40 μM, 8 bp AT 0-50 μM
Method: CD experiments for binding of ligands with duplex DNA (AT-rich). CD titration experiments, monitoring in the wavelength region corresponding to the bound ligand, were performed with different concentrations of 8 bp AT (0-50 μM) added to a fixed concentration of either DMZ or Triazene-1 (40 μM).

[7] = test system: MCR5A; assay: WST-1 IC50 determination, normal fibroblast; type: cell-based, human; conditions: normal fibroblast cell, 72 hours
Method: Cell lines and culturing. The following human cell lines were purchased from ATCC (ATCC, Manassas, Va.): prostate cancer cells (PC-3), triple negative breast cancer cells (MDA-MB-231), ovarian cancer cells (OVCAR-3), normal bone marrow (NBM) and normal fibroblast cells (MCR5A). MDA-MB-231 cells were grown at 37° C. with 5% CO2 atmosphere with DMEM (Life technologies, Carlsbad, Calif.) supplemented with heat-inactivated 10% (V/V) fetal bovine serum. OVCAR-3 and PC-3 cells were grown at 37° C. with 5% CO2 atmosphere with RPMI (Life technologies, Carlsbad, Calif.) supplemented with heat-inactivated 10% (V/V) fetal bovine serum. Cell lines were grown and maintained according to ATCC recommendations.
IC50 determination. Cell lines were seeded into 96-well plates the afternoon prior to treatment. Cell seeding number was determined by growing cells in log phase growth during drug treatment. Approximately 18 hours later, compounds were semi-serially diluted in dimethyl sulfoxide (DMSO) and then growth medium, and added to cells. Plates were incubated for 72 hours prior to addition of WST-1 (Promega, Madison Wis.). Plates were read after 4 additional hours of incubation at 37° C. using a Bio-Tek Synergy HT plate reader (Bio-Tek, Winooski, Vt.). Data was analyzed, graphed and IC50s generated using GraphPad Prism Software (Graphpad, La Jolla, Calif.).

[8] = ITC, 20 mM Tris, 100 mM KCl, pH 7.2
[9] = from ITC data, as low as, read-out: dissociation constant

N=C(N)c1ccc(NN=Nc2ccccc2)cc1 [DMZ1]
K1 [1, 8]: 36000 M⁻¹
K1 ([2]; 20 mM Tris, 100 mM KCl, pH 7.2): 29000 M⁻¹
reduction in binding affinity relative to DMZ ([2]; compare Tables 2 and 3): ~30 times
K1 [3, 8]: 3500 M⁻¹
K1 [4]: 2100 M⁻¹
shift of absorption spectrum upon DNA titration [5]: red shift
induced CD of ligand [6]: No induced CD

N=C(N)c1ccc(N=NNc2cccc(C#Cc3ccc(F)cc3)c2)cc1 [DMZ9]
IC50 ([7]; read-out: IC50 ± SD, MCR5A): 8300 ± 4000 nM

N=C(N)c1ccc(/N=N/Nc2ccccc2C#Cc2ccc(F)cc2)cc1 [DMZ13]
IC50 ± SD, MCR5A [7]: NE (NE means not effective. Cell viability was the same or greater than 75% of the DMSO control at 20 μM compound concentration.)

N=C(N)c1ccc(/N=N/Nc2ccc(C(=N)N)cc2)cc1 [DMZ, Diminazene aceturate, reference compound]
K1 [1, 8]: 7.6e+08 M⁻¹
K2 [1, 8]: 1.9e+07 M⁻¹
K3 [1, 8]: 280000 M⁻¹
Kd [1, 9]: ~1 nM
K2 ([2]; 20 mM Tris, 100 mM KCl, pH 7.2): 45000 M⁻¹
K1 [3, 8]: 8.8e+08 M⁻¹
K2 [3, 8]: 1.9e+06 M⁻¹
K3 [3, 8]: 64000 M⁻¹
Kd [3, 9]: ~1 nM
K3 [4]: 55000 M⁻¹
shift of absorption spectrum upon DNA titration [5]: remarkable bathochromic shift (red shift) and a hypochromic effect
induced CD of ligand [6]: large positive induced CD
